Source: US12344863B2, “Method of producing stem cell-derived endothelial cells and uses thereof” (Emory University, priority 2016, dated 2025)

Key:
[1] = tested on: mesodermally differentiated hPSCs; assay: Endothelial differentiation of mesodermally differentiated hPSCs with or without DLL4 (qRT-PCR, flow cytometry); format: cell-based, human
Text: Flow cytometric analyses also confirmed increases in PECAM1, CDH5, and VWF (FIG. 1D) and decreases in PTPRC (CD45), CD34, KIT (CD117), and PROM1 (CD133). […] Similar results were found in three hESC lines (H1, H7, and H9) and two hiPSC lines (BJ1 and PGP1) by flow cytometry and qRT-PCR. […] Immunocytochemistry confirmed expression of EC markers VWF and CDH5 as well.

hESCs (H9) = assay: Mesodermal differentiation of hPSCs with CHIR99021 (qRT-PCR, flow cytometry); format: cell-based, human
Method: A clinically compatible stepwise protocol was developed which follows endothelial development (FIG. 1A). To develop a fully defined system, KnockOut™ Serum Replacement substituted for animal serum and feeder cells. As a first step, two coating materials were compared (collagen and Matrigel™), and induced differentiation of hPSCs into the mesodermal lineage using CHIR99021, a GSK3β inhibitor which mimics Wnt activation. hESCs (H9) were plated onto dishes coated with 0.01% collagen or 10% Matrigel™ and were cultured for 3, 5, and 7 days in hESC medium with or without 3 µM CHIR99021. […] Flow cytometry analyses confirmed that the percentage of KDR+ cells was highest (51.2±4.3%) under these conditions.
The hESCs (H1, H7, and H9) and hiPSCs (BJ1 and PGP1 obtained from Dr. George Daley) were cultured in mTeSR™ 1 (STEMCELL Technologies) on 5% matrigel at 37° C., 5% CO2. For directed differentiation, enzymatically dissociated clumps of hPSCs (lower than passage 60) were cultured on 0.01% collagen-coated plates in DMEMF-12 including 20% Serum Replacement (SR) with or without addition of specific differentiation factors for 7-10 days. hPSCs were cultured on collagen coated plates for an additional 14 days.

Compound | PECAM1, CDH5, and VWF by flow cytometry ([1]; day 14, with vs without DLL4) | PTPRC (CD45), CD34, KIT (CD117), and PROM1 (CD133) by flow cytometry ([1]; day 14, with vs without DLL4) | KDR, PECAM1, CDH5 and VWF expression ([1]; qRT-PCR, day 14, addition of DLL4) | percentage of KDR+ cells (hESCs (H9); hESCs (H9), collagen coating, 3 µM CHIR99021, 3 days, flow cytometry) | POU5F1 (OCT4) expression (hESCs (H9); qRT-PCR) | expression of definitive ectoderm (SOX1) and endoderm (FOXA2) markers (hESCs (H9); qRT-PCR) | T (Brachyury) and KDR transcripts (hESCs (H9); qRT-PCR, collagen coating and CHIR99021 treatment for 3 days, vs Matrigel, 5 and 7 days, no CHIR99021)
DLL4: polypeptide comprising a mature human or mammalian peptide sequence encoded by a DLL4 gene; a Notch ligand | increases | decreases | further increased |  |  |  | 
Cc1cnc(-c2cnc(NCCNc3ccc(C#N)cn3)nc2-c2ccc(Cl)cc2Cl)[nH]1 [CHIR99021, 6-[[2-[[4-(2,4-dichlorophenyl)-5-(5-methyl-1H-imidazol-2-yl)-2-pyrimidinyl]amino]ethyl]amino]-3-pyridinecarbonitrile] |  |  |  | 51.2±4.3% | reduced | not significantly changed | most highly expressed
